Results as given in patent US6869589B1, “Cryptate compounds and methods for diagnosis and therapy” (Australian Nuclear Science & Technology Organization, priority 1999, dated 2005).
Where two headings read alike, the source gives them in different places. Blank lines part the entries; values can stand above or below the molecule they belong to.

Key:
[1] = Biodistribution of ^64Cu complexes in balb/c mice; conditions: for Clearance of the complex (biodistribution, in words): if the ligand detaches from the antibody
Description: (§1) The biodistribution of the ^64Cu complexes of compounds (1), (3) and (4) (0.10 ml intravenous injection) were evaluated in balb/c mice (5 animals per time point) at 3, 5, 10, 15, 20 and 30 minute time intervals. Biodistribution studies were performed in duplicate.

[2] = Serum stability of ^67Cu complex in human plasma at 37° C., size exclusion chromatography; format: in vitro ADME; conditions: first 174 hours
Description: Serum stability studies were conducted by incubating a ^67Cu complex of related species (4) in human plasma at 37° C. [drawing 11]
At various time intervals, the complex was separated from the plasma by size exclusion chromatography and the complex breakdown was assessed. […] (FIGS. 1a and 1b).

[3] = Effect of pH on complexation of ^64Cu by compound (3), monitored by ITLC-SG; format: physicochemical
Description: The effect of pH on complexation of ^64Cu by compound (3) was investigated. Compound (3) was diluted into buffers of pH 3.0, 4.0, 5.0, 6.0, 7.0, 8.0 and 9.0. A sufficient amount of ^64Cu was added and the rate of complexation was monitored at (t=1, 2.5, 5, 10, 60 and 90 mins) (see method below) by Instant Thin Layer Chromatography (ITLC-SG). Complete complexation (>98%) was achieved within 1 min for all pH ≧4.0. The rate of complexation at pH 3.0 was slower. (FIG. 2).
Monitoring Complexation by ITLC-SG
ITLC-SG strips (10 cm×0.8 cm) were spotted with ˜1 μL of reaction mixture 1 cm from the bottom of the strip (origin) and were developed in a solvent containing 0.1 M sodium acetate (pH 4.5): ethanol=9:1. ^64Cu-compound (3) remains at the origin (Rf=0.0), and “free” ^64Cu appears at the solvent front (Rf=1.0).

[4] = mouse, in vivo
Description: as §1

Copper lost from the chelator [2]: no more than 2%
SMILES: C1CNCC2CNCCNCC(CN1)CNCCNC2.[67Cu+2] [^67Cu complex of compound (4)]

Clearance of the complex (biodistribution, in words) [1]: clear rapidly from the system
SMILES: NC12CNCCNCC(N)(CNCCNC1)CNCCNC2 [compound (1)]

Continued, molecule first:

SMILES: C1CNCC2CNCCNCC(CN1)CNCCNC2.[64Cu+2] [^64Cu-labelled compound (4)]
% injected dose per gram ([1]; BLADDER, 3 MIN): 13.15 % INJECTED DOSE PER GRAM
% injected dose per gram ([1]; BLADDER, 5 MIN): 28.05 % INJECTED DOSE PER GRAM
% injected dose per gram ([1]; BLADDER, 10 MIN): 69.91 % INJECTED DOSE PER GRAM
% injected dose per gram ([1]; BLADDER, 15 MIN): 8.17 % INJECTED DOSE PER GRAM
% injected dose per gram ([1]; BLADDER, 20 MIN): 16.38 % INJECTED DOSE PER GRAM
% injected dose per gram ([1]; BLADDER, 30 MIN): 25.38 % INJECTED DOSE PER GRAM
% injected dose per gram ([1]; BLOOD, 3 MIN): 8.25 % INJECTED DOSE PER GRAM
% injected dose per gram ([1]; BLOOD, 5 MIN): 7.08 % INJECTED DOSE PER GRAM
% injected dose per gram ([1]; BLOOD, 10 MIN): 4.41 % INJECTED DOSE PER GRAM
% injected dose per gram ([1]; BLOOD, 15 MIN): 2.71 % INJECTED DOSE PER GRAM
% injected dose per gram ([1]; BLOOD, 20 MIN): 1.40 % INJECTED DOSE PER GRAM
% injected dose per gram ([1]; BLOOD, 30 MIN): 1.07 % INJECTED DOSE PER GRAM
% injected dose per gram ([1]; BONE, 3 MIN): 1.60 % INJECTED DOSE PER GRAM
% injected dose per gram ([1]; BONE, 5 MIN): 1.56 % INJECTED DOSE PER GRAM
% injected dose per gram ([1]; BONE, 10 MIN): 1.28 % INJECTED DOSE PER GRAM
% injected dose per gram ([1]; BONE, 15 MIN): 1.60 % INJECTED DOSE PER GRAM
% injected dose per gram ([1]; BONE, 20 MIN): 0.89 % INJECTED DOSE PER GRAM
% injected dose per gram ([1]; BONE, 30 MIN): 0.65 % INJECTED DOSE PER GRAM
% injected dose per gram ([1]; GIT, 3 MIN): 2.62 % INJECTED DOSE PER GRAM
% injected dose per gram ([1]; GIT, 5 MIN): 2.16 % INJECTED DOSE PER GRAM
% injected dose per gram ([1]; GIT, 10 MIN): 1.49 % INJECTED DOSE PER GRAM
% injected dose per gram ([1]; GIT, 15 MIN): 1.07 % INJECTED DOSE PER GRAM
% injected dose per gram ([1]; GIT, 20 MIN): 0.89 % INJECTED DOSE PER GRAM
% injected dose per gram ([1]; GIT, 30 MIN): 0.80 % INJECTED DOSE PER GRAM
% injected dose per gram ([1]; HEART, 3 MIN): 3.25 % INJECTED DOSE PER GRAM
% injected dose per gram ([1]; HEART, 5 MIN): 2.66 % INJECTED DOSE PER GRAM
% injected dose per gram ([1]; HEART, 10 MIN): 1.60 % INJECTED DOSE PER GRAM
% injected dose per gram ([1]; HEART, 15 MIN): 1.08 % INJECTED DOSE PER GRAM
% injected dose per gram ([1]; HEART, 20 MIN): 0.51 % INJECTED DOSE PER GRAM
% injected dose per gram ([1]; HEART, 30 MIN): 0.47 % INJECTED DOSE PER GRAM
% injected dose per gram ([1]; KIDNEY, 3 MIN): 20.08 % INJECTED DOSE PER GRAM
% injected dose per gram ([1]; KIDNEY, 5 MIN): 18.62 % INJECTED DOSE PER GRAM
% injected dose per gram ([1]; KIDNEY, 10 MIN): 14.79 % INJECTED DOSE PER GRAM
% injected dose per gram ([1]; KIDNEY, 15 MIN): 7.52 % INJECTED DOSE PER GRAM
% injected dose per gram ([1]; KIDNEY, 20 MIN): 25.99 % INJECTED DOSE PER GRAM
% injected dose per gram ([1]; KIDNEY, 30 MIN): 30.26 % INJECTED DOSE PER GRAM
% injected dose per gram ([1]; LIVER, 3 MIN): 1.81 % INJECTED DOSE PER GRAM
% injected dose per gram ([1]; LIVER, 5 MIN): 1.59 % INJECTED DOSE PER GRAM
% injected dose per gram ([1]; LIVER, 10 MIN): 1.16 % INJECTED DOSE PER GRAM
% injected dose per gram ([1]; LIVER, 15 MIN): 0.64 % INJECTED DOSE PER GRAM
% injected dose per gram ([1]; LIVER, 20 MIN): 5.01 % INJECTED DOSE PER GRAM
% injected dose per gram ([1]; LIVER, 30 MIN): 5.76 % INJECTED DOSE PER GRAM
% injected dose per gram ([1]; LUNGS, 3 MIN): 5.85 % INJECTED DOSE PER GRAM
% injected dose per gram ([1]; LUNGS, 5 MIN): 5.28 % INJECTED DOSE PER GRAM
% injected dose per gram ([1]; LUNGS, 10 MIN): 2.84 % INJECTED DOSE PER GRAM
% injected dose per gram ([1]; LUNGS, 15 MIN): 2.09 % INJECTED DOSE PER GRAM
% injected dose per gram ([1]; LUNGS, 20 MIN): 1.13 % INJECTED DOSE PER GRAM
% injected dose per gram ([1]; LUNGS, 30 MIN): 0.92 % INJECTED DOSE PER GRAM
% injected dose per gram ([1]; MUSCLE, 3 MIN): 1.76 % INJECTED DOSE PER GRAM
% injected dose per gram ([1]; MUSCLE, 5 MIN): 2.10 % INJECTED DOSE PER GRAM
% injected dose per gram ([1]; MUSCLE, 10 MIN): 1.24 % INJECTED DOSE PER GRAM
% injected dose per gram ([1]; MUSCLE, 15 MIN): 1.73 % INJECTED DOSE PER GRAM
% injected dose per gram ([1]; MUSCLE, 20 MIN): 0.36 % INJECTED DOSE PER GRAM
% injected dose per gram ([1]; MUSCLE, 30 MIN): 1.27 % INJECTED DOSE PER GRAM
% injected dose per gram ([1]; SKIN, 3 MIN): 5.98 % INJECTED DOSE PER GRAM
% injected dose per gram ([1]; SKIN, 5 MIN): 6.46 % INJECTED DOSE PER GRAM
% injected dose per gram ([1]; SKIN, 10 MIN): 4.21 % INJECTED DOSE PER GRAM
% injected dose per gram ([1]; SKIN, 15 MIN): 2.76 % INJECTED DOSE PER GRAM
% injected dose per gram ([1]; SKIN, 20 MIN): 1.73 % INJECTED DOSE PER GRAM
% injected dose per gram ([1]; SKIN, 30 MIN): 1.42 % INJECTED DOSE PER GRAM
% injected dose per gram ([1]; SPLEEN, 3 MIN): 2.26 % INJECTED DOSE PER GRAM
% injected dose per gram ([1]; SPLEEN, 5 MIN): 2.17 % INJECTED DOSE PER GRAM
% injected dose per gram ([1]; SPLEEN, 10 MIN): 1.28 % INJECTED DOSE PER GRAM
% injected dose per gram ([1]; SPLEEN, 15 MIN): 0.67 % INJECTED DOSE PER GRAM
% injected dose per gram ([1]; SPLEEN, 20 MIN): 0.52 % INJECTED DOSE PER GRAM
% injected dose per gram ([1]; SPLEEN, 30 MIN): 0.35 % INJECTED DOSE PER GRAM
% injected dose per gram ([1]; STOMACH, 3 MIN): 3.53 % INJECTED DOSE PER GRAM
% injected dose per gram ([1]; STOMACH, 5 MIN): 3.04 % INJECTED DOSE PER GRAM
% injected dose per gram ([1]; STOMACH, 10 MIN): 1.84 % INJECTED DOSE PER GRAM
% injected dose per gram ([1]; STOMACH, 15 MIN): 0.89 % INJECTED DOSE PER GRAM
% injected dose per gram ([1]; STOMACH, 20 MIN): 0.70 % INJECTED DOSE PER GRAM
% injected dose per gram ([1]; STOMACH, 30 MIN): 0.65 % INJECTED DOSE PER GRAM

SMILES: NC12C[N]3CC[N]4CC5(NCc6ccc([N+](=O)[O-])cc6)C[N]6CC[N](C1)[Cu]3461[N](CC[N]1C5)C2 [compound (2)]
Clearance of the complex (biodistribution, in words) [1]: clear rapidly from the system

SMILES: Nc1ccc(CNC23CNCCNCC(N)(CNCCNC2)CNCCNC3)cc1 [compound (3)]
Time to complete complexation of ^64Cu ([3]; all pH ≧4.0): ≤ 1 min
Complexation of ^64Cu (complete complexation) ([3]; all pH ≧4.0, within 1 min, ITLC-SG): > 98%
Rate of complexation of ^64Cu ([3]; pH 3.0, compared with pH ≧4.0): slower
Clearance of the complex (biodistribution, in words) [4]: clear rapidly from the system
